Key:
[1] = in combination with a NYESO-1 peptide vaccine (in addition to Montanide); cited from earlier work
[2] = in humans; cited from earlier work
[3] = system: CD8+ T cell responses; test: In vivo immunogenicity assay, longmers and shortmers sequentially (FIG. 3 regimen); parameters: species or system C57BL/6 mice; conditions: CD8 T cells induced by Alg8 vaccination
Method: FIG. 3 illustrates exemplary administration regimen for peptides comprising neoepitopes. The top panel depicts administering a prime dose and boost of longmer. The middle panel depicts administering a prime dose and boost of shortmer. The lower panel depicts administering a prime dose of longmer and boost of shortmer. The boost dose is administered on day 7, 14, and day 21 after the prime dose.
Peptide-specific T cells are functionally enumerated using the ELISPOT assay (BD Biosciences), which measures the release of IFNγ from T cells on a single cell basis. Cells incubated with antigen overnight (16-18 hours) at 37° C. The next day, the cell suspension was discarded, and wells were washed once with PBS, and twice with deionized water. […] Substrate (3-amino-9-ethyl-carbazole, 0.1 M Acetate buffer, H2O2) was added to all wells, and spot development monitored (approximately 10 minutes). […] The plates were analyzed on an ELISPOT reader (Cellular Technology Ltd.) with accompanying software. […]
MHC tetramers were purchased or manufactured on-site, and were used to measure peptide-specific T cell expansion in the immunogenicity assays. […] The phenotype of cells was assessed using markers such as CD44, CD62L, KLRG1, CD127, PD-1, LAG-3 and TIM-3. […] Cells were acquired on a FACS Calibur (Becton Dickinson) instrument, and were analyzed by use of Cellquest software (Becton Dickinson). […]

For poly-ICLC, the “patients showing induction of CD4+ and CD8+ T cell, as well as antibody responses to the peptide” value [1] is listed as greater than 90% and the “CD4+ and CD8+ responses” value [2] is listed as “durable CD4+ and CD8+ responses”.
For ITYTWTRL [Alg8-shortmer], the “TCR avidity (EC50)” value [3] was “similar”.
In the case of “AVGITYTWTRLYASVLTGSLVSKTKK [Alg8, longmer murine neoantigen peptide, H-2Kb, T3 model]”, the “TCR avidity (EC50)” value [3] is reported as “similar”.
